{
  "source": "ChEMBL document CHEMBL3351476",
  "about": "“The discovery of I-BET726 (GSK1324726A), a potent tetrahydroquinoline ApoA1 up-regulator and selective BET bromodomain inhibitor” (J Med Chem, 2014)",
  "key": {"[1]": {"target": "Bromodomain-containing protein 3 (Homo sapiens, UniProt Q15059)", "sequence (Q15059 whole entry, the tested form may be a part)": "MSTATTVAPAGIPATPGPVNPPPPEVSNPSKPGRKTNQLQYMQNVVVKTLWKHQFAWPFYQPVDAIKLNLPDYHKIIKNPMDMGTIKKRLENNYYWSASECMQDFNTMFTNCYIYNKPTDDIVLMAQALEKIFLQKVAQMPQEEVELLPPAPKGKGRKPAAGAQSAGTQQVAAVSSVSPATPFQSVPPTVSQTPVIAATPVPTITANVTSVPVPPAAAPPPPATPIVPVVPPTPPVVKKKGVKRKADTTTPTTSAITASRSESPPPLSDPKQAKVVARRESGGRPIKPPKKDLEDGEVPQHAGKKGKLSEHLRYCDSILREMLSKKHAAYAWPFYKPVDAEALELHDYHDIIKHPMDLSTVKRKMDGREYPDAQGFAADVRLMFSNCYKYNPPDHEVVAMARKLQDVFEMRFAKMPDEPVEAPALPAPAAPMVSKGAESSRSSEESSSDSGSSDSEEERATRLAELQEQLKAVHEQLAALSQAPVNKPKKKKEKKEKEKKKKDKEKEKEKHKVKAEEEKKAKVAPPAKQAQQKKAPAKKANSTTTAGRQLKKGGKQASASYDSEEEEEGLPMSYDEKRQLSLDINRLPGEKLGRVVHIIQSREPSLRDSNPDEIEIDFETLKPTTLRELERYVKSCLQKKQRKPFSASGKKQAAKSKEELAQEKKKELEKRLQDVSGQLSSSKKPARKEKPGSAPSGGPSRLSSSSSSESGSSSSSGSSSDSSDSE", "experiment": "Displacement of biotinylated tetra-acetylated histone H4 from His6-tagged BRD3 (1 to 475 aa) (unknown origin) after 1 hr by TR-FRET assay"}, "[2]": {"experiment": "Solubility of the compound in fasted state simulated intestinal fluid at 125 ug/ml after 16 hrs by HPLC analysis", "type": "ADME", "settings": "fasted state simulated intestinal fluid"}, "Hepatocyte": {"system": "Hepatocyte", "experiment": "Clearance in rat hepatocytes assessed per gram of tissue at 1 uM by LC-MS/MS analysis", "type": "ADME, cell-based"}, "[3]": {"experiment": "Clearance in dog hepatocytes assessed per gram of tissue at 1 uM by LC-MS/MS analysis", "type": "ADME, cell-based, Canis lupus familiaris, Hepatocyte"}, "Cytochrome P450 2C9": {"target": "Cytochrome P450 2C9 (Homo sapiens, UniProt P11712)", "sequence (P11712 whole entry)": "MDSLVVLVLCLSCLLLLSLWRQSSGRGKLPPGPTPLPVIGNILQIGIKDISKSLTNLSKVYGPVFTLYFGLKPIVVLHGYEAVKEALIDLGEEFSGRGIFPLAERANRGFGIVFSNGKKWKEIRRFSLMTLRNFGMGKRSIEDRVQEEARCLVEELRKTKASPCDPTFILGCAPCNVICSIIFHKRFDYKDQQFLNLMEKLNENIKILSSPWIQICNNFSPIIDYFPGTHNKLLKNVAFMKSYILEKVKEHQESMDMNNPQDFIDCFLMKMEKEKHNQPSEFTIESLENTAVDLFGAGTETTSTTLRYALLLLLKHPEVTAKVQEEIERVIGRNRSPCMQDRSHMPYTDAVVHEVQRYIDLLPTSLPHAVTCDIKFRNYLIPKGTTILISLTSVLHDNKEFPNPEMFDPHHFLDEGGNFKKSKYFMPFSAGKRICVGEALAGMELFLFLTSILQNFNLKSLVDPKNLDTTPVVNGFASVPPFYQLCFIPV", "experiment": "Inhibition of CYP2C9 (unknown origin) expressed in Escherichia coli bactosomes using 7-methoxy-4-trifluoromethylcoumarin-3-acetic acid as substrate after 10 mins by fluorescence assay", "type": "ADME"}, "Cytochrome P450 2C19": {"target": "Cytochrome P450 2C19 (Homo sapiens, UniProt P33261)", "experiment": "Inhibition of CYP2C19 (unknown origin) expressed in Escherichia coli bactosomes using 3-butyryl-7-methoxycoumarin as substrate after 10 mins by fluorescence assay", "type": "ADME"}, "CREB-binding protein [4]": {"target": "T1, CREB-binding protein (Homo sapiens, UniProt Q92793)", "T1 sequence (Q92793 whole entry)": "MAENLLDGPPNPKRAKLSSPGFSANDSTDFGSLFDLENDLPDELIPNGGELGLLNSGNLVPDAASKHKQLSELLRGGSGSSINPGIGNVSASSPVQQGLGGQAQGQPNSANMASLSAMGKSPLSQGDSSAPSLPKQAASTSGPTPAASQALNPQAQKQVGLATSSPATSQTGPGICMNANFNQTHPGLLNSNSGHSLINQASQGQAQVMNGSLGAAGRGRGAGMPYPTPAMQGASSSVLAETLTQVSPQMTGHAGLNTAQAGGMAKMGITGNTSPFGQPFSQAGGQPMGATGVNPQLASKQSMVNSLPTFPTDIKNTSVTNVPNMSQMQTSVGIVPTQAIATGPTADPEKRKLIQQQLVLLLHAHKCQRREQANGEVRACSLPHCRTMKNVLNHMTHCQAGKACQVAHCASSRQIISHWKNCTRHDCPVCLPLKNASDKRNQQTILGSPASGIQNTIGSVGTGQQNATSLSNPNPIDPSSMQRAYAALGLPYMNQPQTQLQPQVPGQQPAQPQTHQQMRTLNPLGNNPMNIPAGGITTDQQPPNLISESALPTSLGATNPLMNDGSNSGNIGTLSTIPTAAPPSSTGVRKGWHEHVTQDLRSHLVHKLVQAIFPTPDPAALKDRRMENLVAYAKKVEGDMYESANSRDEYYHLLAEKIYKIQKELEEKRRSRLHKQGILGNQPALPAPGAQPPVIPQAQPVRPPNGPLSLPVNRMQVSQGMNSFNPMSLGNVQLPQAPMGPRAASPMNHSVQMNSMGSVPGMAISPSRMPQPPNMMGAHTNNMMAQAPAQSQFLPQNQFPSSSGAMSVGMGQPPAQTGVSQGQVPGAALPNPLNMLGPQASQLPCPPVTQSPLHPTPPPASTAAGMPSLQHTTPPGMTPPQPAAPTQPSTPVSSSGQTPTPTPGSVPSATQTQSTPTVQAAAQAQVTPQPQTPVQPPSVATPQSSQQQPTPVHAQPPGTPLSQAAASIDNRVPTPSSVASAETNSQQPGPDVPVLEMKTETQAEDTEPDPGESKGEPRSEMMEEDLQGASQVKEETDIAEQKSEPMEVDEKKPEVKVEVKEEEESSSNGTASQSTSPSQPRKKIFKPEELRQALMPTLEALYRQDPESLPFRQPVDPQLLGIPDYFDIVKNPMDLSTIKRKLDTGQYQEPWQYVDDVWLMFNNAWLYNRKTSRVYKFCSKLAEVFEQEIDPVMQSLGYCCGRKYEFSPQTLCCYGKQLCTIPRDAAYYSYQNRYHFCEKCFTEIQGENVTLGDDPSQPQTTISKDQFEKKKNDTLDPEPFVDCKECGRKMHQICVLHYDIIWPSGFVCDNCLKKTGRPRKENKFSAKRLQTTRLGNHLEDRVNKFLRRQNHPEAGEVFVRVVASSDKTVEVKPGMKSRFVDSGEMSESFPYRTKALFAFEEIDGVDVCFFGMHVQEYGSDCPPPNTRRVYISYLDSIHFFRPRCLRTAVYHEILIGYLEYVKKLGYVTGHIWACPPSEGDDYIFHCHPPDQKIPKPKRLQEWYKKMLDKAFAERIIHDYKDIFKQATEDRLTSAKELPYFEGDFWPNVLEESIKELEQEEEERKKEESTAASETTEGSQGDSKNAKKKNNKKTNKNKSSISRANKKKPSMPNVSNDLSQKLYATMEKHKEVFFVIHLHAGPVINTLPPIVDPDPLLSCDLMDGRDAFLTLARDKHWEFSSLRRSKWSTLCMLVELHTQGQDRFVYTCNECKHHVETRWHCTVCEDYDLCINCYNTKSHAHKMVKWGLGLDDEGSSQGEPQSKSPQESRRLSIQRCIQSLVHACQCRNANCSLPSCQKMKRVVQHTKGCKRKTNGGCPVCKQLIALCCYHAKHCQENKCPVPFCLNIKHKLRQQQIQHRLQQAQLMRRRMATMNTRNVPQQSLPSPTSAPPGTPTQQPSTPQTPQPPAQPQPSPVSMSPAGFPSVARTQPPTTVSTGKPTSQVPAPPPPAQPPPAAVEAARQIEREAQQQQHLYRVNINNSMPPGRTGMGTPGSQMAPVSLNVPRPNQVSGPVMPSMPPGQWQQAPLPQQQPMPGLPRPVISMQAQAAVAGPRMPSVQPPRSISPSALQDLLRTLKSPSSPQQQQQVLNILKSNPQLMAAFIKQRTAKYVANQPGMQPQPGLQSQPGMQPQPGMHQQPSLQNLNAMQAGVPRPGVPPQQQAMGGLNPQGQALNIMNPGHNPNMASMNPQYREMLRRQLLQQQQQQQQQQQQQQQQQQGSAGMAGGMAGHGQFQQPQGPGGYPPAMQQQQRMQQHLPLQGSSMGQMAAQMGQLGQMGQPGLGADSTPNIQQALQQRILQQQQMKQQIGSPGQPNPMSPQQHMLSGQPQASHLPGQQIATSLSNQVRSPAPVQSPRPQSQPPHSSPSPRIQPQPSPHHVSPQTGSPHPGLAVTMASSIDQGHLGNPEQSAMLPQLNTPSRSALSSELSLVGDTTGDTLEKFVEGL", "experiment": "Binding affinity to CREBBP (unknown origin) by ITC method"}, "[5]": {"target": "ATPase family AAA domain-containing protein 2B (Homo sapiens, UniProt Q9ULI0)", "experiment": "Inhibition of human ATAD2B by BROMOscan assay"}, "[6]": {"target": "Bromodomain-containing protein 7 (Homo sapiens, UniProt Q9NPI1)", "experiment": "Inhibition of human BRD7 by BROMOscan assay"}, "[7]": {"target": "Bromodomain and PHD finger-containing protein 3 (Homo sapiens, UniProt Q9ULD4)", "experiment": "Inhibition of human BRPF3 by BROMOscan assay"}, "[8]": {"target": "Chromatin remodeling regulator CECR2 (Homo sapiens, UniProt Q9BXF3)", "experiment": "Inhibition of human CECR2 by BROMOscan assay"}, "CREB-binding protein [9]": {"target": "T1, CREB-binding protein", "experiment": "Inhibition of human CREBBP by BROMOscan assay"}, "[10]": {"target": "Histone acetyltransferase KAT2A (Homo sapiens, UniProt Q92830)", "experiment": "Inhibition of human GCN5 by BROMOscan assay"}, "[11]": {"target": "E3 ubiquitin-protein ligase TRIM33 (Homo sapiens, UniProt Q9UPN9)", "sequence (Q9UPN9 whole entry)": "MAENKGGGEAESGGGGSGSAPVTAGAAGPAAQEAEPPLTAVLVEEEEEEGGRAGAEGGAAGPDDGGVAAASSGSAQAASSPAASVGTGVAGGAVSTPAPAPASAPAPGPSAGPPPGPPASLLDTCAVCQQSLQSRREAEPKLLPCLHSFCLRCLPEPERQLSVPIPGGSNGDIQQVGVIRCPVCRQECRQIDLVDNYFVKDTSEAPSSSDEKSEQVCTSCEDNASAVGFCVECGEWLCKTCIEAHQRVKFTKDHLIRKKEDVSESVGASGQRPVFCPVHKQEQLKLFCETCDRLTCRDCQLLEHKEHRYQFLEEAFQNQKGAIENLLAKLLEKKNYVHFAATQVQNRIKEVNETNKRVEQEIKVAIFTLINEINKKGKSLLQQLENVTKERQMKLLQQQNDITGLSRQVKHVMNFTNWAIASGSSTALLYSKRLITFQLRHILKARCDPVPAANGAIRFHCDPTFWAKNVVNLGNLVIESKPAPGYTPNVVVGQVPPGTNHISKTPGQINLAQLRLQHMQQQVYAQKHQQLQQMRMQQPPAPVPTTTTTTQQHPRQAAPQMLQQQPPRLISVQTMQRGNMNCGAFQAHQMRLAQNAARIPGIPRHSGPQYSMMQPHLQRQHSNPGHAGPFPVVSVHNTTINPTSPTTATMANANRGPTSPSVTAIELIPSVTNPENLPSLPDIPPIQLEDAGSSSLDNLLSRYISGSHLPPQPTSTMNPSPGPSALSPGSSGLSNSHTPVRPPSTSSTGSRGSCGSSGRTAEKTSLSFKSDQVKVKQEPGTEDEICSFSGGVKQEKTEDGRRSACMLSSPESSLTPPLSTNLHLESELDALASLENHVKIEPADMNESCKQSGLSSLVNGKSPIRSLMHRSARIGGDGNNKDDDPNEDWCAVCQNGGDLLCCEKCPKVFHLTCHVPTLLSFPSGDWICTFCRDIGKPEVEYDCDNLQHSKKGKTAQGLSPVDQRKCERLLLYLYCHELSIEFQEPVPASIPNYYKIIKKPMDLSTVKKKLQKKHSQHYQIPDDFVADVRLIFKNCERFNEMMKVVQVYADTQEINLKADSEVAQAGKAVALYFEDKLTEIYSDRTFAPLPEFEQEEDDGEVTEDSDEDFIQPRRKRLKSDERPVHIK", "experiment": "Inhibition of human TIF1gamma PHD/bromodomain by BROMOscan assay"}, "[12]": {"experiment": "Permeability of the compound by PAMPA", "type": "ADME", "settings": "read-out: permeability"}, "[13]": {"experiment": "Fraction unbound in dog blood by rapid equilibrium dialysis method", "type": "ADME, tissue-based, Canis lupus familiaris"}, "[14]": {"experiment": "Fraction unbound in human blood by rapid equilibrium dialysis method", "type": "ADME, tissue-based"}, "[15]": {"experiment": "Volume of distribution at steady state in Balb/c mouse at 10 mg/kg, iv as bolus dose", "type": "ADME, organism-based", "set-up": "dose 10 mg/kg, route intravenous", "settings": "in vivo, read-out: Vdss"}, "[16]": {"experiment": "Terminal half life in Balb/c mouse at 10 mg/kg, iv as bolus dose", "type": "ADME, organism-based", "set-up": "dose 10 mg/kg, route intravenous", "settings": "in vivo, read-out: beta t1/2 (converted)"}, "[17]": {"experiment": "Blood clearance in rat at 1 mg/kg, iv as infusion and 3 mg/kg, po", "type": "ADME, organism-based", "settings": "whole blood"}, "[18]": {"experiment": "AUC (0 to t) in rat at 3 mg/kg, po", "type": "ADME, organism-based", "set-up": "dose 3 mg/kg, route oral", "settings": "plasma"}, "[19]": {"experiment": "Blood clearance in beagle dog at 1 mg/kg, iv as infusion and 3 mg/kg, po", "type": "ADME, organism-based, Canis lupus familiaris", "settings": "whole blood"}, "[20]": {"experiment": "AUC (0 to t) in beagle dog at 3 mg/kg, po", "type": "ADME, organism-based, Canis lupus familiaris", "set-up": "dose 3 mg/kg, route oral", "settings": "plasma"}, "[21]": {"experiment": "Oral bioavailability in Cynomolgus monkey at 2 mg/kg", "type": "ADME, organism-based, Macaca fascicularis", "settings": "in vivo"}, "Mus musculus": {"system": "Mus musculus", "experiment": "Antiinflammatory activity in septic shock Balb/c mouse model assessed as mouse survival at 10 mg/kg, iv as single dose post LPS challenge measured after 5 days post treatment relative to vehicle-treated control", "type": "functional", "settings": "120 h"}},
  "data": [
    {"smiles": "CC(=O)N1c2ccc(-c3ccc(C(=O)O)cc3)cc2[C@H](Nc2ccc(Cl)cc2)C[C@@H]1C", "values": [
      {"measurement": "IC50", "setting": "[1]", "value": 0.2, "unit": "µM"},
      {"measurement": "solubility at 16 h", "setting": "[2]", "value": 106, "unit": "µg/mL"},
      {"measurement": "CLH", "setting": "Hepatocyte", "value": "< 0.85", "unit": "mL/min/g"},
      {"measurement": "CLH", "setting": "[3]", "value": "< 1.7", "unit": "mL/min/g"},
      {"measurement": "IC50", "setting": "Cytochrome P450 2C9", "value": 13, "unit": "µM"},
      {"measurement": "IC50", "setting": "Cytochrome P450 2C19", "value": 12, "unit": "µM"},
      {"measurement": "Kd", "setting": "CREB-binding protein [4]", "value": 6.3, "unit": "µM"},
      {"measurement": "IC50", "setting": "[5]", "value": "> 31.6", "unit": "µM"},
      {"measurement": "IC50", "setting": "[6]", "value": "> 0.00126", "unit": "µM"},
      {"measurement": "IC50", "setting": "[7]", "value": "> 0.001", "unit": "µM"},
      {"measurement": "IC50", "setting": "[8]", "value": "> 31.6", "unit": "µM"},
      {"measurement": "IC50", "setting": "CREB-binding protein [9]", "value": 31.6, "unit": "µM"},
      {"measurement": "IC50", "setting": "[10]", "value": "> 0.316", "unit": "µM"},
      {"measurement": "IC50", "setting": "[11]", "value": "> 10", "unit": "µM"},
      {"measurement": "Papp", "setting": "[12]", "value": 9.5, "unit": "×10⁻⁶ cm/s"},
      {"measurement": "fraction unbound", "setting": "[13]", "value": 0.065},
      {"measurement": "fraction unbound", "setting": "[14]", "value": 0.017},
      {"measurement": "Vd", "setting": "[15]", "value": 0.48, "unit": "L/kg"},
      {"measurement": "half-life", "setting": "[16]", "value": 3.6, "unit": "h"},
      {"measurement": "clearance", "setting": "[17]", "value": 26, "unit": "mL/min/kg"},
      {"measurement": "AUC(0-t)", "setting": "[18]", "value": 539, "unit": "ng·h/mL"},
      {"measurement": "clearance", "setting": "[19]", "value": 6, "unit": "mL/min/kg"},
      {"measurement": "AUC(0-t)", "setting": "[20]", "value": 5900, "unit": "ng·h/mL"},
      {"measurement": "bioavailability", "setting": "[21]", "value": 103, "unit": "%"},
      {"measurement": "survival at 10 mg/kg", "setting": "Mus musculus", "value": 56, "unit": "%"}
    ]}
  ]
}
